Experimental data published in patent US6586410B1, “Lipid-nucleic acid particles prepared via a hydrophobic lipid-nucleic acid complex intermediate and use for gene transfer” (Inex Pharmaceuticals Corporation, priority 1995, dated 2003).
One block for each molecule: values may come before it.

Key:
[1] = Plasmid encapsulation (protection from external medium) by anion exchange chromatography on DEAE Sepharose CL-6B; type: physicochemical; settings: for cationic lipid concentration required for optimal plasmid encapsulation: detergent dialysis
Protocol: The extent of encapsulation or protection of the plasmid from the external medium was assessed by anion exchange chromatography as follows: a 50 μl aliquot of each sample was eluted on a DEAE Sepharose CL-6B column and the fractions were assessed for both ^3H-plasmid and ^14C-lipid by scintillation counting. Any exposed negative charges, such as those present on DNA molecules will bind-to the anion exchange column and will not elute with the ^14C-lipid. DNA which has its negative charge, “protected” or non-exposed will not bind to the anion exchange resin and will elute with the ^14C-lipid. Alternatively, plasmid DNA was measured using the indicator dye, PicoGreen®.

[2] = system: plasmid DNA; assay: Bligh and Dyer extraction: DNA partitioning between aqueous and organic phase; type: physicochemical; settings: for amount of lipid for complete partitioning of the DNA into the organic phase: preformed liposomes; for DNA partitioning into the organic phase versus charge ratio: polyvalent lipids compared with monovalent cationic lipids; for DNA partitioning: nonlipid cations, charge ratios up to and in excess of 4
Protocol: […] This mixture of solvents and water is equivalent to that used in the preparation of a Bligh and Dyer monophase (Bligh and Dyer, Can. J. Biochem. Physiol. 37:91-97 (1959)). Typically, DNA was added to achieve a final concentration of […] in solution while lipid was added at various concentrations. Trace quantities of 3H-plasmid DNA were added such that 2000 to 4000 dpm were present per 10 g unlabelled DNA. The reaction mixtures were incubated at room temperature for 30 min in a total volume of 1 mL. Subsequently the Bligh and Dyer monophase was partitioned into a two phase system by the addition of water and chloroform (250 L each). The samples were mixed by vortexing and the separation of the lower organic and upper aqueous phases was facilitated by centrifugation at 2000 rpm for 5 min at room temperature. The aqueous phase was removed and retained for scintillation counting. The solvent phase was dried using a stream of nitrogen gas, and the resulting film was resuspended in SOLVABLE solubilizing agent (Dupont NEN, Boston, Mass., USA) and incubated at 50° C. for 1 hour. […] PICOFLUOR scintillant (Canberra Packard, Meriden, Conn., USA) was added to all samples and the radioactivity (3H-DNA) was measured using a Packard TR 1900 Scintillation Counter (Canberra Packard).
Assays evaluating the stability of charge-neutralized, lipid-nucleic acid complexes were done in the presence of varying concentration of NaCl and OGP. Briefly, cationic lipid-nucleic acid complexes were prepared under conditions where 100% of the plasmid was expected to be recovered in the organic phase. NaCl or OGP was then added to the monophase system and incubations carried out at room temperature for 15 min. Bligh and Dyer extractions were performed as described above. The binding of calcium, L-lysine, and poly-L-lysine to the plasmid was evaluated using a modification of the above procedure. These nonlipid cationic materials were dissolved at various concentrations in sterile distilled water and incubated with the plasmid ([…] final concentration in water) at room temperature for 30 min in a final volume of 250 L. Reaction volumes were adjusted to 1 mL with chloroform:methanol (1:2.1) to produce a monophase. Bligh and Dyer extractions were then performed as described.

[3] = system: plasmid DNA; assay: Agarose gel electrophoresis: DNA mobility; type: physicochemical
Protocol: Complexes involving plasmid and poly-L-lysine were formed at a nucleic acid concentration of 10 µg/mL and a 1:1 charge ratio in the presence of 100 mM OGP. Complexes involving the cationic lipid DODAC and plasmid were formed at a plasmid concentration of 10 µg/mL and increasing concentrations of DODAC (10 to 320 nmoles/mL). The mixtures were incubated at room temperature for 30 min prior to loading onto a 0.8% agarose gel. Electrophoresis was carried out in TBE buffer according to standard techniques (Sambrook, et al., Molecular Cloning: A Laboratory Manual, Second Edition, Cold Spring Harbor, N.Y. (1989)). Nucleic acids were visualized after staining the gel with ethidium bromide ([…], 20 min) by photography with UV transillumination.

[4] = system: plasmid DNA; assay: TO-PRO-1 dye intercalation assay (DNA condensation); type: physicochemical; settings: Bligh and Dyer monophase; 1 μM TO-PRO-1; 533 nm
Protocol: The fluorochrome TO-PRO-1 was used to evaluate the state of condensation of the plasmid in the charge-neutralized lipid-nucleic acid complex. TO-PRO-1 was used in this study due to its stable intercalation into the plasmid as well as the high sensitivity in the fluorescence detection compared with the more common intercalator ethidium bromide (see, Hirons, et al., Cytometry 15:129-140 (1994)). Plasmid was dissolved in either the Bligh and Dyer monophase or in 100 mM OGP. Poly-L-lysine or DODAC were each added to 10 g plasmid at a 1:1 charge ratio.
Evaluation of the hydrophobic, charge-neutralized lipid-nucleic acid complexes was carried out by assessing the ability of a small fluorescent probe to bind to the nucleic acid in the complex. […] TO-PRO-1 was then added to a final concentration of 1 μM and fluorescence was measured at 533 nm (probe excitation at 509 nm). […] However, when plasmid DNA was added (10 μg/mL) there was a >600 fold increase in fluorescence at 533 nm. […]
The fluorochrome (TO-PRO-1) was used to evaluate the state of condensation of the DNA in the lipid-nucleic acid particle. […] To measure fluorescence, spectrofluorometric measurements were performed using a Luminescence Spectrometer 50B (Perkin Elmer Ltd., Buckinghamshire, England) with an excitation wavelength of 509 nm and an emission wavelength of 533 nm. […]

[5] = system: plasmid DNA; settings: DNA condensed by addition of polylysine (Reimer et al., 1995); cited from earlier work

Molecule: 1-O-(2′-(ω-methoxypolyethyleneglycol)succinoyl)-2-N-myristoyl-sphingosine [PEG-C14]
- PEG-C14 concentration giving best entrapment ([1]; 7.5% DODAC and DOPE, dialysis method): 10 mol %

- DNA partitioned into the organic phase ([2]; 10 μg DNA, 40 nmoles DODAC, OGP up to 20 mM): greater than 99%
- DNA mobility in agarose gel ([3]; addition of 320 nmoles of DODAC): decrease in DNA migrating into the gel
- cationic lipid concentration required for optimal plasmid encapsulation [1]: 8%
Molecule: CCCCCCCC/C=C\CCCCCCCC[N+](C)(C)CCCCCCCC/C=C\CCCCCCCC.[Cl-] [DODAC, N,N-dioleyl-N,N-dimethylammonium chloride]

- amount of lipid for complete partitioning of the DNA into the organic phase ([2]; 10 μg DNA): approximately 10 nmoles
- stability of complex in presence of NaCl ([2]; Na+ in a 300-fold molar excess): did not cause partitioning
Molecule: CCCCCCCC/C=C\CCCCCCCCOCC(C[N+](C)(C)CCNC(=O)C(CCCNCCCN)NCCCN)OCCCCCCCC/C=C\CCCCCCCC.O=C([O-])C(F)(F)F (stereo not drawn) [DOSPA, N-(-(2,3-dioleyloxy)propyl)-N-(2-(sperminecarboxamido)ethyl)-N,N-dimethylammonium trifluoroacetate]
- DNA partitioning into the organic phase versus charge ratio [2]: a slightly greater charge ratio was required

Molecule: [Ca+2].[Cl-].[Cl-] [calcium, calcium chloride]
- DNA partitioning [2]: majority of the DNA was invariably recovered in the aqueous phase

Molecule: NCCCC[C@H](N)C(=O)O [lysine, L-lysine]
- DNA partitioning [2]: majority of the DNA was invariably recovered in the aqueous phase

Molecule: CCCCCCCCCCCCCCCCCCN(CCCCCCCCCCCCCCCCCC)C(=O)CNC(=O)C(CCCNCCCN)NCCCN (stereo not drawn) [DOGS]
- amount of lipid for complete partitioning of the DNA into the organic phase ([2]; 10 μg DNA): approximately 10 nmoles
- DNA partitioning into the organic phase versus charge ratio [2]: a slightly greater charge ratio was required

- cationic lipid concentration required for optimal plasmid encapsulation [1]: 8%
Molecule: CCCCCCCCCCCCCCOCC(C[N+](C)(C)CCO)OCCCCCCCCCCCCCC.[Br-] (stereo not drawn) [DMRIE, N-(1,2-dimyristyloxyprop-3-yl)-N,N-dimethyl-N-hydroxyethyl ammonium bromide]

- cationic lipid concentration required for optimal plasmid encapsulation [1]: 6.5%
Molecule: CCCCCCCC/C=C\CCCCCCCCOCC(C[N+](C)(C)C)OCCCCCCCC/C=C\CCCCCCCC.[Cl-] (stereo not drawn) [DOTMA, N-(1-(2,3-dioleyloxy)propyl)-N,N,N-trimethylammonium chloride]

- cationic lipid concentration required for optimal plasmid encapsulation [1]: 6.5%
Molecule: CCCCCCCCCCCCCCCCCC[N+](C)(C)CCCCCCCCCCCCCCCCCC.[Cl-] [DSDAC]

- TO-PRO-1 fluorescence / binding to DNA [4]: no fluorescence was observed
- DNA mobility in agarose gel ([3]; 1:1 charge ratio, 100 mM OGP): significantly reduced mobility
Molecule: poly L-lysine hydrobromide [poly-L-lysine]
- DNA partitioning [2]: majority of the DNA was invariably recovered in the aqueous phase
- condensation index [5]: ≈ 1.0
